# Test results published in patent EP4600261A1, “KERATIN YK93-2, AND PREPARATION METHOD THEREFOR, PHARMACEUTICAL COMPOSITION THEREOF AND USE THEREOF” (INSTITUTE OF MATERIA MEDICA, CHINESE ACADEMY OF MEDICAL …, priority 2022, dated 2024).
# Counter-ions that a name gives are not always drawn.
# Tested on: mouse pain model
# Assay: mouse pain model, acetic acid-induced writhing
# Format: in vivo, Male Kunming mice
# Conditions: Tramadol Hydrochloride 50mg/kg, 1% acetic acid intraperitoneally, writhing within 15 minutes
# Description: • Animals: Male Kunming mice; • Drugs: Tramadol Hydrochloride Sustained Release Tablets, Glacial acetic acid, YK93-2; • Instruments: electronic balance, timer
# • Normal control group; • Positive control group: Tramadol Hydrochloride group; • Protein YK93-2, (2g/kg) group.
# Mice in the YK93-2 (2g/kg) group were administered by gavage, while mice in the model group were given an equal volume of CMC-Na once a day for 7 consecutive days. 30 minutes after the last administration, 1% acetic acid was administered intraperitoneally, and the writhing times of mice within 15 minutes was recorded, and the inhibition rate of drug-induced writhing reaction was calculated. The observation criteria were concave abdominal cavity, extended hind limbs, and raised buttocks.
# The inhibition rate was calculated by (Mean number of writhing reactions in the normal control group - Mean number of writhing reactions in the treatment group)/Mean number of writhing reactions in the normal control group * 100%.
structure (smiles),measurement,value
COc1cccc(C2(O)CCCCC2CN(C)C)c1 (stereo not shown) [Tramadol Hydrochloride],Number of writhing,significantly reduced
